Reference: ChEMBL document CHEMBL6134844, “Development of Next-Generation Antimalarial Acridones with Radical Cure Potential” (J Med Chem, 2025)
Calls of active or inactive are those of the source. No cut-off for these calls is given here.

What was measured:
[1] = Toxicity in CF1 mouse infected with asexual blood-stage (ABS) Plasmodium yoelii MRA-428 assessed as hyperactivity at 0.3 to 30 mg/kg, po treated 24 hrs post infection measured after 4 days; type: organism-based; conditions: in vivo, 96 h, dose 0.3-30 mg/kg, time 4 day
[2] = Toxicity in CF1 mouse infected with asexual blood-stage (ABS) Plasmodium yoelii MRA-428 assessed as weight loss at 0.3 to 30 mg/kg, po treated 24 hrs post infection measured after 4 days; type: organism-based; conditions: in vivo, 96 h, dose 0.3-30 mg/kg, time 4 day
[3] = test system: Plasmodium falciparum; test: Synergistic antiplasmodial activity against multi-drug resistant Plasmodium falciparum Tm90-C2B assessed as fractional inhibitory concentration in presence of tafenoquine; type: functional
[4] = molecular target: Voltage-gated inwardly rectifying potassium channel KCNH2 (Homo sapiens, UniProt Q12809); test: Inhibition of hERG expressed in HEK293 cells by manual patch clamp assay; type: toxicity, cell-based
[5] = test system: Plasmodium berghei; test: In vivo antiplasmodial activity against luciferase expressing liver stage Plasmodium berghei ANKA MRA-868 sporozoites infected in Albino C57BL/6 mouse model assessed as cured mouse at 40 mg/kg, po daily measured after 31 days; type: functional, organism-based; conditions: time 31.0 day
[6] = Toxicity in CF1 mouse infected with asexual blood-stage (ABS) Plasmodium yoelii MRA-428 assessed as behavioural change at 0.3 to 30 mg/kg, po treated 24 hrs post infection measured after 4 days; type: organism-based; conditions: in vivo, dose 0.3-30 mg/kg
[7] = test system: Plasmodium yoelii; test: In vivo antiplasmodial activity against asexual blood-stage (ABS) Plasmodium yoelii MRA-428 infected in 4-day suppression CF1 mouse model assessed as reduction in parasitemia by measuring protection at 30 mg/kg, po treated 24 hrs post infection daily measured up to 28 days; type: functional, organism-based; conditions: time <= 28.0 day
[8] = test system: Plasmodium berghei; test: In vivo antiplasmodial activity against luciferase expressing liver stage Plasmodium berghei ANKA MRA-868 sporozoites infected in Albino C57BL/6 mouse model assessed as visible parasites at 40 mg/kg, po daily measured 24 to 48 hrs by real-time In Vivo Imaging System (IVIS); type: functional, organism-based; conditions: time 24-48 hrs
[9] = test system: Plasmodium falciparum; test: Antiplasmodial activity against Plasmodium falciparum Dd2 measured after 72 hrs by drug susceptibility test; type: functional, organism-based; conditions: Dd2, 72 h
[10] = test system: Plasmodium falciparum; test: Antiplasmodial activity against AART-resistant Plasmodium falciparum DR1 measured after 72 hrs by drug susceptibility test; type: functional, organism-based; conditions: DR1, 72 h
[11] = test system: Plasmodium falciparum; test: Synergistic antiplasmodial activity against pan-sensitive Plasmodium falciparum D6 assessed as fractional inhibitory concentration in presence of tafenoquine; type: functional
[12] = test system: Plasmodium falciparum; test: Antiplasmodial activity against AART-resistant Plasmodium falciparum DR4 measured after 72 hrs by drug susceptibility test; type: functional, organism-based; conditions: DR4, 72 h
[13] = test system: Plasmodium berghei; test: In vivo antiplasmodial activity against luciferase expressing liver stage Plasmodium berghei ANKA MRA-868 sporozoites infected in Albino C57BL/6 mouse model assessed as protection at 10 mg/kg, po daily measured 24 to 72 hrs by real-time In Vivo Imaging System (IVIS); type: functional
[14] = mouse, microsomes, 1 h
[15] = test system: Plasmodium falciparum; test: Ex vivo antiplasmodial activity against clinical isolate Plasmodium falciparum isolated from Ugandan measured after 72 hrs by growth inhibition assay; type: functional, organism-based
[16] = AUCextrap in male ICR-CD1 mouse plasma at 40 mg/kg, po; type: ADME, organism-based
[17] = test system: Plasmodium yoelii; test: In vivo antiplasmodial activity against asexual blood-stage (ABS) Plasmodium yoelii MRA-428 infected in 4-day suppression CF1 mouse model assessed as reduction in parasitemia treated 24 hrs post infection daily measured on day 4; type: functional
[18] = test system: Plasmodium yoelii; test: In vivo antiplasmodial activity against asexual blood-stage (ABS) Plasmodium yoelii MRA-428 infected in 4-day suppression CF1 mouse model assessed as reduction in parasitemia by measuring protection at 10 mg/kg, po treated 24 hrs post infection daily for 4 days relative to control; type: functional; parameters: scale not given: the % may be the effect or the level left
[19] = AUC(0 to infinity) in male ICR-CD1 mouse plasma at 40 mg/kg, po; type: ADME, organism-based; conditions: in vivo
[20] = Half life in male ICR-CD1 mouse plasma at 40 mg/kg, po; type: ADME, organism-based
[21] = Apparent oral clearance in male ICR-CD1 mouse plasma at 40 mg/kg, po; type: ADME, organism-based; conditions: in vivo

Voltage-gated inwardly rectifying potassium channel KCNH2, sequence (Q12809 whole entry): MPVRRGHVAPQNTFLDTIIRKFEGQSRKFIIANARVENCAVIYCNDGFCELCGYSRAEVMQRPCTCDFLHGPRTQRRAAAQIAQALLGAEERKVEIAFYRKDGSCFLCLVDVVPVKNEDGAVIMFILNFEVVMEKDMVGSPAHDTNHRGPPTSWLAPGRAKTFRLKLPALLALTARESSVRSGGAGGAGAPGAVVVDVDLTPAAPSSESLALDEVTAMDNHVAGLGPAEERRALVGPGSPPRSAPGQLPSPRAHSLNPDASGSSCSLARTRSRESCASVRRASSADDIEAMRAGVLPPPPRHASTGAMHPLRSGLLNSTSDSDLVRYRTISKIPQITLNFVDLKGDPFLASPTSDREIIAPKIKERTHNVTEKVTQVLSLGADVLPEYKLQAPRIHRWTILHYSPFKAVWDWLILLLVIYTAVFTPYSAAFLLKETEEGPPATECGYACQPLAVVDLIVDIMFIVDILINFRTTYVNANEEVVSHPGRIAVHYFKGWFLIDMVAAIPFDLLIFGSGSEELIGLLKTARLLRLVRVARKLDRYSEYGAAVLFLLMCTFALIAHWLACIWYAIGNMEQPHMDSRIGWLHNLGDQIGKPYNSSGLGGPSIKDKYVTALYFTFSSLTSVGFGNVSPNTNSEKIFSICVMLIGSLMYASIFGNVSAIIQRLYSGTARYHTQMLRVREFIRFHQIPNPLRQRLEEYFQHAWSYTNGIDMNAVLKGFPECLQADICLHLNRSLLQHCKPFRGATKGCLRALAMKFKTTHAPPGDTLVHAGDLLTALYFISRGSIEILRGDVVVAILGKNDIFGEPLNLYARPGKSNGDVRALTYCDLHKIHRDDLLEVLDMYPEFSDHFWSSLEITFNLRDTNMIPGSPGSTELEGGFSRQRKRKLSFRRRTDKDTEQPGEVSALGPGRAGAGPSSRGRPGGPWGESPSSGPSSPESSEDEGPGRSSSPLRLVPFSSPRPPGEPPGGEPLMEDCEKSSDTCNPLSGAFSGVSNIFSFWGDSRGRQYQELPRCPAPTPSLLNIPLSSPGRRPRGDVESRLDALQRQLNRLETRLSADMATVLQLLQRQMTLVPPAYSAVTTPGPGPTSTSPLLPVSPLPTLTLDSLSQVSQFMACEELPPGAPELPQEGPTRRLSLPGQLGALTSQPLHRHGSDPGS

## O=c1c2c([nH]c3cc(Oc4ccc(OC(F)(F)F)cc4)ccc13)CCCC2
[1]
  Activity: Non-toxic
[2]
  Activity: Non-toxic
[3]
  FIC: 0.76
[4]
  IC50: > 10000 nM
[5]
  Activity: Active; Out Of 5 - 5 Mouse Cured
[6]
  Activity: Non-toxic
[7]
  Activity: Active; Out Of 4 - 3 Mouse Cured
[8]
  Activity: Active
[9]
  IC50: 2.06 nM
[10]
  IC50: 5.26 nM
[11]
  FIC: 0.81
[12]
  IC50: 5.35 nM
[13]; time 24-72 hrs
  Activity: 100%
[14]
  t1/2: 0.197 h
[15]
  IC50: 10.5 nM

## O=c1c2c([nH]c3cc(Oc4ccc(OC(F)(F)F)cc4)c(F)cc13)CCCC2
[1]
  Activity: Non-toxic
[2]
  Activity: Non-toxic
[6]
  Activity: Non-toxic
[7]
  Activity: Active; Out Of 4 - 3 Mouse Cured
[8]
  Activity: Active
[16]
  AUC: 23.7%
[17]
  ED50: 1.5 mg/kg
  ED90: 4.7 mg/kg
[18]
  Activity: 100%
[19]
  AUC: 219 ng·h/mL
[20]
  half-life: 3.89 h
[13]; time lower 24.0 hrs, time upper […]
  Activity: Not active; Out Of 5 - 0 Mouse Cured
[21]
  CL/F: 87.98 mL/min/kg
